Reference: the supplement of paper PMC11061612

Assays:
Test in all cases: Bliss excess, mean over the matrix (fraction); higher = more synergy
[1] = test system: 8505C (Thyroid Gland Carcinoma)
Method in brief: (§1)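 Cell lines in DMEM/F12 or RPMI with 10% FBS were plated in 1536-well plates, held 24 hours at 37°C, 5% CO2, then given two-drug dose matrices for 72 hours (DMSO typically 0.2%). Viability was read by CellTiter-Glo 2.0 luminescence and scaled as inhibition from 0 (vehicle wells) to 1 (blank wells). Combination Emax is the second-highest inhibition in the matrix; Bliss excess is observed combination effect minus expected EA + EB − EA·EB, EA and EB being single-agent effects.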

[2] = test system: COR-L279 (Small Cell Lung Carcinoma)
Method in brief: as §1

[3] = test system: ESO51 (Esophageal Adenocarcinoma)
Method in brief: as §1

G-361 (Melanoma) = test system: G-361 (Melanoma)
Method in brief: as §1

[4] = test system: IM-95 (Gastric Carcinoma)
Method in brief: as §1

[5] = test system: KP-3 (Pancreatic Carcinoma)
Method in brief: as §1

[6] = test system: KU812 (Chronic Myelogenous Leukemia)
Method in brief: as §1

[7] = test system: KY821 (Acute Myeloid Leukemia)
Method in brief: as §1

[8] = test system: KYSE-270 (Esophageal Squamous Cell Carcinoma)
Method in brief: as §1

[9] = test system: MN-60 (B-Lymphoblastic Leukemia)
Method in brief: as §1

[10] = test system: MOG-G-CCM (Low Grade Glioma)
Method in brief: as §1

NCI-H2731 (Mesothelioma) = test system: NCI-H2731 (Mesothelioma)
Method in brief: as §1

[11] = test system: NCI-H520 (Squamous Cell Lung Carcinoma)
Method in brief: as §1

[12] = test system: NCI-H661 (Non-Small Cell Lung Carcinoma)
Method in brief: as §1

[13] = test system: NCI-H929 (Plasma Cell Myeloma)
Method in brief: as §1

[14] = test system: PC-3 (Prostate Carcinoma)
Method in brief: as §1

[15] = test system: RPMI-8226 (Plasma Cell Myeloma)
Method in brief: as §1

[16] = test system: SU-DHL-5 (B-Cell Non-Hodgkin's Lymphoma)
Method in brief: as §1

[17] = test system: SUP-B15 (B-Lymphoblastic Leukemia)
Method in brief: as §1

[18] = test system: T-T (Esophageal Squamous Cell Carcinoma)
Method in brief: as §1

Row | SMILES | Bliss excess [1] | Bliss excess [2] | Bliss excess [3] | Bliss excess (G-361 (Melanoma)) | Bliss excess [4] | Bliss excess [5] | Bliss excess [6] | Bliss excess [7] | Bliss excess [8] | Bliss excess [9] | Bliss excess [10] | Bliss excess (NCI-H2731 (Mesothelioma)) | Bliss excess [11] | Bliss excess [12] | Bliss excess [13] | Bliss excess [14] | Bliss excess [15] | Bliss excess [16] | Bliss excess [17] | Bliss excess [18]
1 | COc1cccc(OCCCN)c1-c1cc(Nc2cnc(C#N)cn2)n[nH]1 [Prexasertib] + Cc1cc2ncnn2cc1Nc1ncc2c(n1)n(C1CCOCC1)c(=O)n2C [AZD7648] (first compound max 1 µM, 7x7, partner max 10 µM) | 0.0131 | 0.0225 | -0.0081 | -0.0052 | -0.0163 | 0.0141 | -0.0891 | 0.0276 | -0.0355 | 0.0271 | -0.0037 | -0.0001 | 0.0278 | -0.0543 | -0.0864 | -0.036 | -0.0936 | -0.0314 | -0.0406 | 0.0364
2 | COc1cccc(OCCCN)c1-c1cc(Nc2cnc(C#N)cn2)n[nH]1 [Prexasertib] + CN(C)CCCOc1ccc(-c2ccc3ncc4c(c3c2)n(C2CCOCC2)c(=O)n4C)cn1 [AZD0156] (first compound max 1 µM, 7x7, partner max 1 µM) | -0.0089 | 0.0053 | -0.0414 | 0.061 | 0.0384 | 0.0021 | -0.061 | -0.0228 | -0.0024 | -0.0077 | -0.0184 | -0.012 | -0.0486 | -0.0451 | -0.0523 | -0.0352 | -0.0048 | -0.0089 | -0.0513 | 0.0061
3 | COc1nnc2ccc(N3CCC(c4ccc(OCCN5CCN(C)C(=O)[C@H]5C)cc4)CC3)nn12 [AZD5153] + C=CCn1c(=O)c2cnc(Nc3ccc(N4CCN(C)CC4)cc3)nc2n1-c1cccc(C(C)(C)O)n1 [AZD1775] (first compound max 1 µM, partner max 1 µM) | 0.0074 | -0.0192 | -0.0594 | -0.0271 | -0.0146 | 0.0038 | -0.0632 | -0.0266 | -0.067 | -0.067 | -0.0646 | 0.0147 | -0.0115 | -0.019 | -0.0551 | -0.0118 | -0.0059 | 0.0156 | 0.0252 | -0.029
4 | CN(C)CCCOc1ccc(-c2ccc3ncc4c(c3c2)n(C2CCOCC2)c(=O)n4C)cn1 [AZD0156] + CCN(CCO)CCCOc1ccc2c(Nc3cc(CC(=O)Nc4cccc(F)c4)[nH]n3)ncnc2c1 [AZD2811] (first compound max 1 µM, 7x7, partner max 1 µM) | -0.0257 | 0.0256 | -0.0147 | -0.0148 | 0.0925 | -0.0417 | -0.0158 | 0.147 | -0.0307 | -0.016 | -0.0228 | -0.0279 | 0.0012 | -0.0304 | 0.0125 | -0.0243 | 0.0092 | -0.0542 | -0.0595 | -0.0262
5 | Cc1cc2ncnn2cc1Nc1ncc2c(n1)n(C1CCOCC1)c(=O)n2C [AZD7648] + C=CCn1c(=O)c2cnc(Nc3ccc(N4CCN(C)CC4)cc3)nc2n1-c1cccc(C(C)(C)O)n1 [AZD1775] (first compound max 10 µM, partner max 1 µM) | -0.0235 | -0.0595 | -0.0433 | 0.0081 | 0.0212 | 0.0283 | 0.0177 | -0.0098 | 0.0028 | -0.0316 | -0.0309 | -0.0225 | 0.004 | -0.0135 | -0.0572 | -0.0415 | 0.0062 | 0.105 | 0.0174 | 0.002
6 | COc1nnc2ccc(N3CCC(c4ccc(OCCN5CCN(C)C(=O)[C@H]5C)cc4)CC3)nn12 [AZD5153] + CCN(CCO)CCCOc1ccc2c(Nc3cc(CC(=O)Nc4cccc(F)c4)[nH]n3)ncnc2c1 [AZD2811] (first compound max 1 µM, 7x7, partner max 1 µM) | 0.03 | -0.0201 | -0.0152 | -0.0432 | -0.0664 | -0.0359 | -0.0011 | 0.0574 | -0.054 | -0.0224 | -0.052 | -0.0294 | 0.0242 | -0.0318 | -0.0026 | -0.0257 | -0.0116 | -0.0638 | -0.028 | -0.0284
7 | CC(=O)c1c(C)c2cnc(Nc3ccc(N4CCNCC4)cn3)nc2n(C2CCCC2)c1=O [Palbociclib] + CC1(C)CCC(CN2CCN(c3ccc(C(=O)NS(=O)(=O)c4ccc(NCC5CCOCC5)c([N+](=O)[O-])c4)c(Oc4cnc5[nH]ccc5c4)c3)CC2)=C(c2ccc(Cl)cc2)C1 [Venetoclax] (first compound max 10 µM, 7x7, partner max 1 µM) | -0.0584 | -0.002 | -0.0078 | 0.016 | -0.0399 | -0.0533 | -0.0401 | 0.0485 | -0.0349 | -0.0666 | -0.0493 | -0.0002 | -0.0209 | -0.0593 | -0.112 | -0.0582 | 0.0461 | -0.0201 | -0.0176 | -0.027
8 | CC1(C)CCC(CN2CCN(c3ccc(C(=O)NS(=O)(=O)c4ccc(NCC5CCOCC5)c([N+](=O)[O-])c4)c(Oc4cnc5[nH]ccc5c4)c3)CC2)=C(c2ccc(Cl)cc2)C1 [Venetoclax] + CCN(CCO)CCCOc1ccc2c(Nc3cc(CC(=O)Nc4cccc(F)c4)[nH]n3)ncnc2c1 [AZD2811] (first compound max 1 µM, 7x7, partner max 1 µM) | -0.0133 | 0.0501 | -0.0104 | -0.0163 | 0.104 | -0.0316 | -0.0433 | 0.002 | -0.0072 | -0.0927 | -0.0061 | -0.021 | 0.0319 | -0.0105 | 0.101 | -0.0668 | 0.0361 | -0.125 | 0.0132 | 0.0158
9 | C[C@@H]1COCCN1c1cc(C2([S@](C)(=N)=O)CC2)nc(-c2ccnc3[nH]ccc23)n1 [AZD6738] + O=C(c1cc(Cc2n[nH]c(=O)c3ccccc23)ccc1F)N1CCN(C(=O)C2CC2)CC1 [Olaparib] (first compound max 10 µM, 7x7, partner max 10 µM) | 0.0004 | 0.0042 | -0.102 | -0.0052 | 0.031 | 0.0143 | -0.0429 | -0.0521 | -0.013 | -0.042 | 0.0005 | -0.0266 | 0.044 | 0.039 | -0.0942 | -0.0095 | -0.0189 | 0.002 | -0.0608 | -0.0237
10 | CN(C)CCCOc1ccc(-c2ccc3ncc4c(c3c2)n(C2CCOCC2)c(=O)n4C)cn1 [AZD0156] + O=C(c1cc(Cc2n[nH]c(=O)c3ccccc23)ccc1F)N1CCN(C(=O)C2CC2)CC1 [Olaparib] (first compound max 3 µM, partner max 3 µM) | 0.066 | 0.0782 | 0.0292 | 0.0857 | -0.0093 | -0.0305 | 0.264 | 0.0829 | 0.0509 | -0.0615 | 0.0005 | 0.0068 | 0.0671 | 0.0145 | 0.016 | -0.0088 | 0.103 | 0.197 | -0.0159 | 0.122
11 | Cc1nc(Nc2ncc(C(=O)Nc3c(C)cccc3Cl)s2)cc(N2CCN(CCO)CC2)n1 [Dasatinib] + CC(=O)Nc1cccc(-n2c(=O)n(C3CC3)c(=O)c3c(Nc4ccc(I)cc4F)n(C)c(=O)c(C)c32)c1 [Trametinib] (first compound max 2 µM, 7x7, partner max 1 µM) | 0.0809 | -0.0073 | -0.0066 | -0.0282 | -0.0551 | 0.0304 | -0.0046 | -0.144 | -0.0142 | -0.029 | -0.0782 | 0.0298 | -0.0488 | -0.0528 | -0.075 | -0.0759 | 0.0121 | 0.0159 | -0.0562 | 0.0381
12 | NC1(C(=O)N[C@@H](CCO)c2ccc(Cl)cc2)CCN(c2ncnc3[nH]ccc23)CC1 [Capivasertib] + CCN(CCO)CCCOc1ccc2c(Nc3cc(CC(=O)Nc4cccc(F)c4)[nH]n3)ncnc2c1 [AZD2811] (first compound max 10 µM, 7x7, partner max 1 µM) | 0.0134 | -0.054 | -0.0363 | 0.0426 | -0.0168 | -0.03 | 0.0173 | 0.052 | -0.0289 | -0.0095 | -0.0373 | 0.0438 | -0.004 | -0.0058 | 0.025 | 0.0151 | -0.0101 | -0.0225 | -0.103 | 0.013
13 | CN(CCO)CC[C@H](CSc1ccccc1)Nc1ccc(S(=O)(=O)NC(=O)c2ccc(N3CCC([C@@H](O)c4ccccc4-c4ccc(Cl)cc4)CC3)cc2)cc1S(=O)(=O)C(F)(F)F [AZD4320] + CN(C)CCCOc1ccc(-c2ccc3ncc4c(c3c2)n(C2CCOCC2)c(=O)n4C)cn1 [AZD0156] (first compound max 1 µM, 7x7, partner max 1 µM) | -0.0014 | 0.0041 | -0.0095 | 0.001 | -0.0683 | -0.0462 | -0.0086 | 0.002 | -0.0152 | 0.0032 | -0.0155 | -0.0485 | -0.0185 | -0.0232 | -0.0267 | -0.0266 | 0.0137 | -0.066 | -0.0535 | -0.0047
14 | NC1(C(=O)N[C@@H](CCO)c2ccc(Cl)cc2)CCN(c2ncnc3[nH]ccc23)CC1 [Capivasertib] + Cn1cnc2c(F)c(Nc3ccc(Br)cc3Cl)c(C(=O)NOCCO)cc21 [Selumetinib] (first compound max 10 µM, 7x7, partner max 10 µM) | 0.0302 | 0.0214 | 0.0417 | 0.0429 | -0.0017 | 0.0087 | -0.0282 | 0.0177 | 0.0691 | -0.0652 | -0.0355 | -0.0115 | -0.015 | -0.0074 | 0.0041 | -0.0419 | 0.0411 | 0.0547 | 0.0854 | 0.095
